Measurements taken from patent US10406091B2, “Skin anti-ageing composition” (Conopco, Inc., priority 2011, dated 2019).

Test system: interleukin 8 (IL-8)
Assay: IL-8 ELISA on supernatant of TNF alpha-challenged primary epidermal keratinocytes pre-treated with actives
Assay type: cell-based, human
Settings: 24 h pre-treatment, then 10 ng/ml TNF alpha 24 h
Description: An in-vitro model has been developed to investigate the impact of an inflammatory stimulus on epidmeral keratinocytes, in which: • a. Cells are grown in 24-well (2.0 cm^2) plates. • b. The cells are pre-treated with active ingredient of interest for 24 hours then challenged with an inflammatory stimulus, 10 ng/ml tumour necrosis factor alpha (TNFa) in addition to the active ingredient, for a further 24 hours. • c. Cell culture supernatant and cell lysates were harvested at 24 hours (t24) post-TNFa treatment. • d. All cell culture supernatant was assayed for IL-8 as a measure of inflammatory response and cell culture lysate was assayed for total protein (BCA), as a measure of cytotoxicity.
Primary human epidermal keratinocyte cells were cultured and passaged in fully supplemented KGM-Gold media (Lonza) with 70 μM calcium added. Cells were routinely plated out in 24-well tissue culture dishes, at a seeding density of ˜50,000 cells/well in 1 ml medium/well for 24 hours, and incubated at 37° C. in 5% CO2.
Test solutions were prepared in KGM-Gold media without supplemented hydrocortisone and antibiotic. Media was removed from the cells and test solutions were added for 24 hours. The epidermal keratinocytes were then stimulated with an inflammatory challenge for 24 hours using 10 ng/ml TNFa in the presence of the test solutions. The treated supernatant (cell culture supernatant) was removed and stored at −20° C. prior to IL-8 analysis.
The epidermal keratinocytes were washed with 1 ml of Dulbecco's phosphated buffer solution (PBS) and 250 μl of ice cold lysis buffer (1% NP-40, 0.1% sodium deoxycholate, 0.1% sodium dodecyl sulphate, 6 mM sodium chloride and 0.05 M Tris at pH 7.6) containing protease inhibitor cocktail (Roche, Complete™ mini tablets 1 836 170) was added. The lysates were clarified by scraping the samples with a 1 ml syringe plunger and passing through an Acrowell™ filter plate (Pall) using an Acroprep™ vacuum manifold (Pall) into a 96 well microwell plate (Sterilin). The clarified lysates were stored at −20° C. until total protein estimation.
The total protein concentration of each clarified cell lysate was measured using the Pierce BCA protein assay kit so that the response to effect of the test substances could be normalised to ug protein. A set of eight standard solutions ranging from 0 to 1200 μg/ml protein was prepared from the supplied 2 mg/ml bovine serum albumin (BSA) stock solution. 10 μl of standard or cell lysate was added to duplicate wells of a flat-bottomed 96-well plate. The reagent solution was prepared according to the kit instructions from 50 parts reagent A and 1 part reagent B. 200 μl of the final reagent was added to each well. The plate was mixed, covered and incubated at 37° C. for 30 minutes and absorbance read at 562 nm. A protein standard curve was constructed and used to determine the protein concentration of each cell lysate.
The IL-8 concentration of each cell culture supernatant was assayed using the DuoSet Human IL-8 ELISA assay (R&D Systems DY208) according to the manufacturer's instructions. The IL-8 capture antibody was bound to the microtitre plate (Greiner) overnight at room temperature in phosphate buffered saline and removed by washing three times was wash buffer (0.05% Tween 20 in PBS) on an automatic plate washer. The plate was blocked with 300 μl of 1% bovine serum albumin (BSA) in phosphate buffered saline for 1 hour at room temperature and washed 3 times in wash buffer. Seven IL-8 standards were prepared in reagent diluent (0.1% BSA, 0.05% Tween 20 in PBS) at concentrations ranging from […]. 100 μl of cell culture supernatant or standard was added to duplicate wells and incubated at room temperature for 2 hours. The plate was washed 3 times with wash buffer before 100 μl of IL-8 detection antibody diluted in reagent diluent was added and incubated for 2 hours at room temperature. […]

| SMILES | IL-8 (pg/μg protein) (sterol alone 1 uM) | IL-8 (pg/μg protein) (sterol alone 5 uM) | IL-8 (pg/μg protein) (sterol alone 10 uM) | IL-8 (pg/μg protein) (myricetin alone 0.5 ug/ml) | IL-8 (pg/μg protein) (myricetin alone 1 ug/ml) | IL-8 (pg/μg protein) (myricetin alone 2.5 ug/ml) |
| --- | --- | --- | --- | --- | --- | --- |
| CC(C)=CCC[C@@H](C)[C@H]1CC[C@H]2[C@@H]3CC=C4C[C@@H](O)CC[C@]4(C)[C@H]3CC[C@]12C [Desmosterol] | 4.756 pg/μg protein | 4.799 pg/μg protein | 4.711 pg/μg protein | – | – | – |
| CC(C)[C@@H](C)/C=C/[C@@H](C)[C@H]1CC[C@H]2[C@@H]3CC=C4C[C@@H](O)CC[C@]4(C)[C@H]3CC[C@]12C [Brassicasterol] | 3.394 pg/μg protein | 4.448 pg/μg protein | 4.862 pg/μg protein | – | – | – |
| O=c1c(O)c(-c2cc(O)c(O)c(O)c2)oc2cc(O)cc(O)c12 [Myricetin] | – | – | – | 3.874 pg/μg protein | 2.741 pg/μg protein | 1.784 pg/μg protein |
| CC[C@H](/C=C/[C@@H](C)[C@H]1CC[C@H]2[C@@H]3CC=C4C[C@@H](O)CC[C@]4(C)[C@H]3CC[C@]12C)C(C)C [Stigmasterol] | 4.638 pg/μg protein | 3.87 pg/μg protein | 4.964 pg/μg protein | – | – | – |
